Measurements from patent publication EP1541694A1, “Methods of identifying, selecting and/or characterizing compounds which modulate the activity of a Src family kinase” (Sirenade Pharmaceuticals AG, priority 2003, dated 2005).

Tests used:
[1] = system: Src-KA expressing ZM76 cell lines; assay: Suppression of tet-induced phenotype changes, evaluated by eye/microscope, normal cell culture plates; format: cell-based, human; settings: adherent, serum-containing medium + EGF, PP1-Chr. and PP2 shown as combination
Description: (§1) Phenotype changes -tet → +tet were evaluated in 24-well plates (Nunc; cat.no. 143982) under the following several different growth conditions to identify the strongest possible response (Δpt(-tet→+tet)max) 1. full (10% serum containing) growth medium a) without any growth factor supplement (-), b) with epidermal growth factor (EGF; 100ng/ml) (cat.no. 115, Research Diagnostics Inc. (RDI), Flanders, NJ, USA) or c) platelet derived growth factor type BB (PDGF-BB; 30ng/ml) (cat.no. 114b, RDI) or d) hepatocyte growth factor (HGF; 20ng/ml) (RDI, cat.no.300-010), or 2. serum-free medium a) - or b) +EGF or c) +PDGF or d) +HGF. In all cases, cells were first seeded into standard 24-well or 96-well plates (Nunc) in full growth medium. The cell number seeded per well was also varied to identify the most suitable cell densities producing Δpt(-tet→+tet)max. […]
(§2) To that end, the test compounds PP1-Chr., PP2 (cat.no. 529573, Calbiochem) and SU6656 (cat.no. 572635, Calbiochem) (see Fig.9p for chemical structures) were individually added to the cells together with tet, and the development of the phenotype changes in the presence of these compounds was monitored subsequently in direct comparison with cells that received no compound or only vehicle (0.2% DMSO) together with tet induction. […]

[2] = system: Src-TQ expressing ZM78 cell lines; assay: as above; format: cell-based, human; settings: adherent
Description: as §1, §2

[3] = system: Src family kinases when they carry the respective TQ mutations; settings: cited from earlier work

## CC(C)(C)n1nc(-c2ccc(Cl)cc2)c2c(N)ncnc21 [PP2]
[1]
  suppression of tet-induced phenotype changes: not able to suppress
[2]
  suppression of tet-induced phenotype changes: ineffective
[3]
  inhibition of Src family kinases carrying the TQ mutations: do not inhibit
